Results on four compounds are retold here after publication PMC4601023, “Novel anticancer agent, SQAP, binds to focal adhesion kinase and modulates its activity” (Scientific Reports, 2015).

One experiment relates to breast CSCs. Set-up: method as in PMID 25187396. As to conditions: in combination with radiotherapy; cited from earlier work.
A further experiment has as its target T1, FAK (910–1052) (Homo sapiens, UniProt Q05397).
T1 construct: For FAK (910–1052) DNA was amplified; made in house; host or cells: E. coli BL21 (DE3)
In words: SPR analysis, immobilized His-tagged FAK (910-1052). The format is binding. The text has this: (§1) SPR was utilized as an independent confirmation of the kinetic parameters between SQAP and the putative binding proteins. […] The recombinant proteins were then expressed in Escherichia coli and purified to homogeneity. In addition, full length, His-tagged ADRM1 and GST-tagged HR23B (GST-HR23B) were also used. The proteins were first immobilized on a CM5 sensor chip of the SPR biosensor (Biacore 3000). For GST-HR23B analysis, a GST protein was additionally immobilized and used as a control in order to eliminate possible nonspecific binding of SQAP. SQAP samples at different concentrations were then injected over the proteins immobilized on the sensor chip. As a negative control we used sulfoquynovosylpropanediol (SQP), which lacks the fatty acid moiety of SQAP (Fig. 1). […]
(§2) The binding kinetics of SCP-2, MFE-2, ADRM1, HR23B and FAK with SQAP and SQP were analyzed on a Biacore 3000 instrument (GE Healthcare, Little Chalfont, UK). […] The buffer of purified peptides was exchanged to HBS-P (150 mM NaCl, 0.005% Surfactant P20, 10 mM HEPES-NaOH pH 7.4) using a PD 10 column (GE Healthcare, Little Chalfont, UK) and the concentrations were quantified using DC protein assay kit (Bio-Rad Laboratories, Hercules, CA, USA). […] Kinetic parameters were determined by analyzing the data using BIAevaluation 4.1 software (GE Healthcare, Little Chalfont, UK).
(In SPR one partner is held on a chip, and binding of the other changes the refractive index at the surface.)

Another experiment deals with T2, ADRM1 (Homo sapiens, UniProt Q16186).
T2 construct: ADRM1 and HR23B human full length proteins were purchased; His-tag; purchased ATgen (Gyeonggi-do, Korea)
T2 sequence (Q16186 whole entry): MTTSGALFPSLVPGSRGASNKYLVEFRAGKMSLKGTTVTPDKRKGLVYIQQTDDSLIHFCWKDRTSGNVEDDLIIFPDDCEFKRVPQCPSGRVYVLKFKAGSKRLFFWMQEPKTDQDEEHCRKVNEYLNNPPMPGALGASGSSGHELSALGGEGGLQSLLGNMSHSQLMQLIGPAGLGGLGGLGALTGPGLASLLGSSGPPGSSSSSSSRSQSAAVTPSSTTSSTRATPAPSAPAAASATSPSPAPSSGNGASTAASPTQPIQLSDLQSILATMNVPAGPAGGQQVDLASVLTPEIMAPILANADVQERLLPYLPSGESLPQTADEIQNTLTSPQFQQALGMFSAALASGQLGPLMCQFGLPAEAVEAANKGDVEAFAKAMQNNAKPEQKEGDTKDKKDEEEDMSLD
The experiment can be described thus: SPR analysis, immobilized full length His-ADRM1. The experiment is classed as binding.
Excerpt: as §1, §2

The target in the next experiment is T3, SCP-2 (400–547) (Homo sapiens, UniProt P22307).
T3 construct: DNA encoding SCP-2 (400–547) was amplified; made in house; host or cells: E. coli Rosetta 2 (DE3) pLysS
T3 sequence (P22307 400-547): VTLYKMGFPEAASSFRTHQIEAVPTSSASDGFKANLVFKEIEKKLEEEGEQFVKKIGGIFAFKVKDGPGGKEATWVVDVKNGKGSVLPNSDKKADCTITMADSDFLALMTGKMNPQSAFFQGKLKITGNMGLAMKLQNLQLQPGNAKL
In words: SPR analysis, immobilized His-tagged SCP-2 (400-547). The experiment is classed as binding.
Excerpt: as §1, §2

The next experiment concerns the target T4, HR23B (Homo sapiens, UniProt P54727).
T4 construct: ADRM1 and HR23B human full length proteins were purchased; purchased Abnova (Taipei, Taiwan)
In words: SPR analysis, immobilized GST-HR23B (GST control subtracted). The experiment is classed as binding. To be noted: no kinetic analysis.
Excerpt: as §1, §2

Experiment [1] concerns FAK phosphorylation (Y397, Y925) in A549 cells. The experiment can be described thus: FAK phosphorylation level in A549, Western blotting. The format is cell-based, human. As to conditions: A549, fibronectin 10 μg/mL, 1 h treatment. As to the method: A549 cells were incubated in a serum-free medium for 48 h in 60 mm dishes (IWAKI, Tokyo, Japan). Then 10 μM SQAP, SQMG or SQP was added and incubated for 30 min followed by addition of fibronectin 10 μg/mL (Sigma, St. Louis, MI, USA) and incubation for another 30 min. FAK phosphorylation level was analyzed by Western blotting as described in the next section.
(§3) Cells were harvested and solubilized in RIPA buffer (20 mM Tris-HCl, pH 7.5, 1% Sodium deoxycholate, 150 mM NaCl, 5 mM EDTA, 1% Triton X-100, 0.1% SDS, 0.1%, 1 mM PMSF, 1 mM vanadate and 1 μg/mL leupeptin). Protein quantification was determined using the DC protein assay kit (Bio-Rad, Hercules, CA, USA). A total of 15 μg of each protein sample were separated by SDS–PAGE gels and blotted onto polyvinylidene difluoride membranes (Merck, Kenilworth, NJ, US). After blocking for 1 h with Blocking-One (Nacalai Tesque, Kyoto, Japan), proteins were detected by incubating the membranes with the primary antibody at 4 °C overnight (anti-Y397 2:2000, anti-Y925 5:2000 and anti-FAK 0.5:2000) followed by incubation with horseradish peroxidase-conjugated secondary antibodies at room temperature for 1 h (anti-mouse 0.5:2000 and anti-rabbit 0.4:2000).

The target in a further experiment is T5, MFE-2 (598–736) (Homo sapiens, UniProt P51659).
T5 construct: For MFE-2 (598–736) DNA was amplified; made in house; host or cells: E. coli Rosetta 2 (DE3) pLysS
T5 sequence (P51659 598-736): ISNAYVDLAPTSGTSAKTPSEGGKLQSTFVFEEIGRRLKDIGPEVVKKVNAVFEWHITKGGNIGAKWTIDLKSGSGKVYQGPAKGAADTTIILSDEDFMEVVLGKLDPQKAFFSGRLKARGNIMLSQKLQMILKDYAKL
The experiment can be described thus: SPR analysis, immobilized His-tagged MFE-2 (598-736). The format is binding.
Excerpt: as §1, §2

In experiment [2] the test system is Akt phosphorylation at S473 in HUVEC. The experiment can be described thus: Akt phosphorylation in HUVEC, Western blotting. The format is cell-based, human. As to conditions: treated for 21 h, 10 µM.
Excerpt: Furthermore, we looked at FAK signaling pathway to validate our results. Paxillin binds to FAK 919–938 residues which is a sequence contained within the region where SQAP is predicted to bind. Binding between paxillin and FAK results in paxillin phosphorylation at Y118[35][36]. Thus, we examined paxillin phosphorylation. […] Additionally, we studied Akt phosphorylation at S473 on account of FAK is a known factor in control of Akt activity. We observed that Akt phosphorylation was diminished when treated with SQAP or SQMG for 21 h (see Supplementary Fig. S3).
as §3, with “0.4:2000). […]” for “0.4:2000).”
(A western blot detects proteins with antibodies after separation by electrophoresis.)

A further experiment relates to Tie2 gene. Set-up: method as in PMID 18380795. To be noted: cited from earlier work.
The next experiment has as its target VEGF (Homo sapiens, UniProt P15692). To be noted: cited from earlier work.
The subject of another experiment is TSP-1 gene. On the set-up: method as in PMID 22587436. As to conditions: diverse cell lines including A549 and HUVEC; cited from earlier work.
The test system of experiment [3] is lung and colon adenocarcinomas. Set-up: method as in PMID 9020475, PMID 21115885. As to conditions: transplanted in nude mice, in combination with X-irradiation; cited from earlier work.
Experiment [4] deals with FAK phosphorylation (Y397, Y925) in HUVEC cells. The experiment can be described thus: FAK phosphorylation level in HUVEC, Western blotting. To be noted: VEGF 50 ng/mL, 1 h. The experiment is classed as cell-based, human. As to the method: HUVEC cells were incubated for 20 h in serum-free medium in 60 mm dishes. SQAP, SQMG or SQP was added and incubated for 30 min followed by addition of 50 ng/mL VEGF (RD systems, Minneapolis, MN. USA) and incubation for another 30 min. FAK phosphorylation level was analyzed by Western blotting as described in the next section.
as §3

The subject of experiment [5] is TSP-1 expression in endothelial cells. On the set-up: method as in PMID 14739779. As to conditions: cited from earlier work.

Sequence of VEGF (P15692 whole entry, species assumed): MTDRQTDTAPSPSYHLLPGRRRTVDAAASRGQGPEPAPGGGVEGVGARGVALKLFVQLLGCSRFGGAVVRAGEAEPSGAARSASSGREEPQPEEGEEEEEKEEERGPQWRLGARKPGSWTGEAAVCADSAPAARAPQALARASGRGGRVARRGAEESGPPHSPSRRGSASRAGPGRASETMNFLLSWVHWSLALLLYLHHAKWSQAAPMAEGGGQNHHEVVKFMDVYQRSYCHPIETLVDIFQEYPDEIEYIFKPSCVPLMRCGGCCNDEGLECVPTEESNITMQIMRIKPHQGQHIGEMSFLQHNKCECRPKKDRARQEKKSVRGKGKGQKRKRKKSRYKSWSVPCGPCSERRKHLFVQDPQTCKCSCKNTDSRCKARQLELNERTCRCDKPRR
T4 sequence (P54727 whole entry): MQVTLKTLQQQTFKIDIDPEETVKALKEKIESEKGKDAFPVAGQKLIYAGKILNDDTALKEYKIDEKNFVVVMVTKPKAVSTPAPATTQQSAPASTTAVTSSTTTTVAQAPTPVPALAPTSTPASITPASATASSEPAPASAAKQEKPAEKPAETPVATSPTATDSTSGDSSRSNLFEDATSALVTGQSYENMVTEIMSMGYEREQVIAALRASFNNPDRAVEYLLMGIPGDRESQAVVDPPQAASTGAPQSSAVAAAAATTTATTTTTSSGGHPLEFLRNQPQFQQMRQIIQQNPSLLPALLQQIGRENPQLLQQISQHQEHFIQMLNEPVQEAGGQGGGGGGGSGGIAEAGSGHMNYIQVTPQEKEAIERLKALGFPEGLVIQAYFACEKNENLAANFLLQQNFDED
T1 sequence (Q05397 910-1052): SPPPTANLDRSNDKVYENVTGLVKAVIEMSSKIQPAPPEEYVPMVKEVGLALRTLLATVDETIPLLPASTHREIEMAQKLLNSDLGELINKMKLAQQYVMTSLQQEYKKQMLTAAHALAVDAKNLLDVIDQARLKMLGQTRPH

Turning to `CS(=O)(=O)c1cccc(CNc2nc(Nc3ccc4c(c3)CCC(=O)N4)ncc2C(F)(F)F)c1` [PF573228], in the experiment on breast CSCs, the “formation of clumps of breast CSCs” value was “block the formation of clumps”.
On to `O=S(=O)(O)C[C@H]1O[C@H](OCCCO)[C@H](O)[C@@H](O)[C@@H]1O` [SQP, sulfoquynovosylpropanediol, reference compound], for which the “binding to FAK (SPR response)” value at FAK (910–1052) is listed as “neither bound”. For the same compound, the “binding to ADRM1 (SPR response)” value at ADRM1 is “neither bound”. For the same compound, the “binding to SCP-2 (SPR response)” value at SCP-2 (400–547) is reported as “neither bound”. For the same compound, on HR23B, the “binding to HR23B (SPR response)” value is listed as “neither bound”. In addition, the “phosphorylation of FAK at Y397 and Y925” value in experiment [1] was “failed to inhibit”. The “binding to MFE-2 (SPR response)” value at MFE-2 (598–736) is recorded as “neither bound”.
Regarding “sulfoquinovosyl monoacylglyceride [SQMG]”, the “Akt phosphorylation at S473” value in experiment [2] was “diminished”. Besides, in the experiment with Tie2 gene, the Tie2 gene expression result was “downregulation”. Also, at VEGF, the “binding to VEGF” value is listed as “bind to VEGF”. In addition, the TSP-1 gene expression result with TSP-1 gene was “upregulation”. In addition, the tumor growth entry in experiment [3] was “significantly inhibited”. Moreover, the “phosphorylation level of FAK at Y397 and at Y925 after VEGF stimulation” value in [4] is recorded as “can inhibit”.
In the case of `O=c1cc(N2CCOCC2)oc2c(-c3ccccc3)cccc12` [LY 294002], in [5], the TSP-1 expression levels entry was “upregulated”.
